Measurements as given in US10464952B2, “Beta-lactamase inhibitors” (priority 2015, dated 2019).

Columns and labels:
SHV-5 = biological target: T1, SHV-5 (Klebsiella pneumoniae, UniProt P0A3M1); test: β-lactamase enzyme inhibition assay, SHV-5 (cefotaxime substrate); assay type: biochemical
T1 construct: made in house; host or cells: E. coli BL21(DE3)
Protocol: (§1) For SHV-5, KPC-2, p99AmpC and OXA-4813-lactamases, E. coli BL21(DE3) bacterial cells carrying expression plasmids (expressed as native untagged proteins) for the individual β-lactamases were grown in 1L of Superbroth (Teknova Inc. Hollister, Calif.) supplemented with 100 μg/ml kanamycin selection and 1×5052 (0.5% glycerol, 0.05% glucose and 0.2% α-lactose) at 35° C. for 18-20 hours. Cells were harvested by centrifugation (4,000 ×g, 4° C., 20 min), re-suspended in 50 ml of 10 mM HEPES pH 7.5 (1/20 of the initial volume). The cells were lysed by sonication (5 pulses of 45 seconds) at 45 Won ice. The lysates were clarified by centrifugation at 10,000 ×g for 40 minutes at 4° C. Samples were diluted 5-fold in 50 mM sodium acetate pH 5.0, stored overnight at 4° C., after which they were centrifuged at 10,000 ×g for 30 minutes to clarify, and filtered through 0.45 μm filters. The samples were loaded onto a 5 ml Capto S sepharose cation exchange column (GE Healthcare) pre-equilibrated with 50 mM sodium acetate pH 5.0. The column was washed with 5 column volumes of 50 mM sodium acetate pH 5.0 to wash out unbound protein and a linear gradient of NaCl (0 to 500 mM) was used to elute the protein (over 16 CV) from the column. Fractions were assayed for β-lactamase activity using Centa (Calbiochem, Gibbstown, N.J.) or Nitrocefin (EMD Millipore chemicals, Darmstadt, Germany) as a reporter β-lactamase substrate for activity in the isolated fractions. Active fractions were pooled, concentrated and further purified by gel filtration chromatography on a Superdex 75 prep grade gel filtration column (GE Healthcare, Piscataway, N.J.) pre -equilibrated in 50 mM Hepes pH 7.5, 150 mM NaCl. Active fractions were pooled, concentrated, and quantitated by BCA protein determination (ThermoScientific, Rockford, Ill.), dialyzed into PBS and frozen at […] in 20% glycerol until use.
(§2) An equal volume of diluted enzyme stock was added, and the plates were incubated at 37° C. for 15 min. Nitrocefin was used as substrate for p99 AmpC, VIM-2 and OXA-48 and dispensed into each well at a final concentration of 100 μM. Absorbance at 486 nm was immediately monitored for 10 min using a Biotek Powerwave XS2 microplate spectrophotometer using the GEN5 software package (Biotek Instruments, Winooski Vt.). In an analogous fashion, imipenem was used as substrate for KPC-2 and Cefotaxime was used for SHV-5, while changes in absorbance upon hydrolysis of the β-lactam ring were monitored at 300 nm and 260 nm respectively in UV-transparent 96-well microtiter assay plates. Maximum rates of hydrolysis were compared to those in control wells (without inhibitors), and percentages of enzyme inhibition were calculated for each concentration of inhibitor. The concentration of inhibitor needed to reduce the initial rate of hydrolysis of substrate by 50% (IC50) was calculated as the residual activity of β-lactamase at 486 nm using GraFit version 7 kinetics software package (Erithacus Software, Surrey, UK).
(§3) Using the methodology described above, examples of the current invention were evaluated for their ability to inhibit β-lactamase enzymes from all four Ambler classifications (A through D). […] NT=Not tested.

KPC-2 = biological target: T2, KPC-2 (Klebsiella pneumoniae, UniProt Q9F663); test: β-lactamase enzyme inhibition assay, KPC-2 (imipenem substrate); assay type: biochemical
T2 construct: made in house; host or cells: E. coli BL21(DE3)
Protocol: as §1, §2, §3

[1] = biological target: T3, VIM-2 metallo β-lactamase (Pseudomonas aeruginosa, UniProt Q9K2N0); test: β-lactamase enzyme inhibition assay, VIM-2 (nitrocefin substrate); assay type: biochemical; settings: 15 min preincubation at 37° C.; nitrocefin 100 μM, 486 nm; read-out: IC50 VIM-2 (Class B)
T3 construct: made in house; host or cells: E. coli BL21(DE3)
Protocol: For VIM-2 metallo β-lactamase, the procedure was identical with the following exceptions, first the protein was not pH adjusted to pH 5 with 50 mM sodium acetate. Second, the chromatography step was changed to a 5 ml Q sepharose anion exchange column pre-equilibrated with 50 mM Hepes pH 7.5, and elution of the protein was achieved by a linear gradient of NaCl (0-600 mM). Finally, the VIM-2 purification required a second run (3rd step) on the Q sepharose anion exchange column to achieve acceptable purity (>90%).
as §2, §3

p99 AmpC = biological target: T4, p99 AmpC (Enterobacter cloacae, UniProt P05364); test: β-lactamase enzyme inhibition assay, p99 AmpC (nitrocefin substrate); assay type: biochemical
T4 construct: made in house; host or cells: E. coli BL21(DE3)
Protocol: as §1, §2, §3

OXA-48 = biological target: T5, OXA-48 (Klebsiella pneumoniae, UniProt Q6XEC0); test: β-lactamase enzyme inhibition assay, OXA-48 (nitrocefin substrate); assay type: biochemical
T5 construct: made in house; host or cells: E. coli BL21(DE3)
Protocol: as §1, §2, §3

[2] = test system: E. cloacae expressing the Class C P99; test: Broth microdilution MIC assay, potentiation of ceftazidime; assay type: cell-based; settings: for MIC (μg/mL) of exemplary compounds in presence of fixed β-lactams, E. cl. 144200 p99 AmpC: Fixed CAZ 4 μg/mL, CAMHB, 16-20 hours at 37° C.
Source text: (§4) To determine the ability of test compounds to potentiate the inhibition of the growth of bacterial strains that produce beta-lactamase enzymes, classic cell based broth microdilution MIC assays were employed. Six bacteria strains producing beta-lactamase enzymes were used: E. coli expressing the Class A Extended Spectrum Beta-Lactamase (ESBL) CTX-M-15, E. cloacae expressing the Class C P99, K. pneumoniae expressing the Class A carbapenemase KPC-3, P.aeruginosa expressing the Class B carbapenemase VIM-2, K. pneumoniae expressing the class A carbapenemase KPC-2 and the class B carbapenemase VIM-4, and K. pneumoniae producing the Class D carbapenemase OXA-48. The assay was conducted in Cation Adjusted Mueller Hinton Broth (CAMHB, BD #212322, BD Diagnostic Systems, Sparks, Md.). Bacteria strains were grown for 3-5 hours in CAMHB broth. Test compounds were added to a microtiter plate in 2-fold serial dilutions in CAMHB in a final concentration range of 32 μg/mL to 0.015 μg/mL. An overlay of CAMHB containing a Beta-lactam was added to the compounds at a final static concentration of 4 μg/mL. […] In addition to the titration of test compounds the MICs of a panel of control beta-lactams is also tested to ensure the strains are behaving consistently from test to test. Once the test compound and antibiotics are added the plates can be inoculated according to CLSI broth microdilution method. After inoculation, the plates are incubated for 16-20 hours at 37° C., then the Minimal Inhibitory Concentration (MIC) of the test compound is determined visually.
(§5) Using the methodology described above, examples of the current invention were evaluated for their ability to inhibit the growth of β-lactamase-producing bacteria in the presence of a β-lactam antibiotic.
(§6) Representative results are shown in Table 3 where A represents an MIC of the fixed β-lactam antibiotic in the presence of >32 μg/mL of a β-lactamase inhibitor of exemplary compounds, B represents the MIC in the presence of between 8 and 32 μg/mL of a β-lactamase inhibitor of exemplary compounds, and C represents the MIC in the presence of ≤4 μg/mL of a β-lactamase inhibitor of exemplary compounds. NT=Not Tested.

[3] = test system: E. coli expressing the Class A Extended Spectrum Beta-Lactamase (ESBL) CTX-M-15; test: as above; assay type: cell-based; settings: for MIC (μg/mL) of exemplary compounds in presence of fixed β-lactams, E. coli ESBL4 CTX-M-15: Fixed CAZ 4 μg/mL, CAMHB, 16-20 hours at 37° C.
Source text: as §4, §5, §6

[4] = test system: K. pneumoniae expressing the Class A carbapenemase KPC-3; test: Broth microdilution MIC assay, potentiation of meropenem; assay type: cell-based; settings: Fixed Mero 4 μg/mL; CAMHB, 16-20 hours at 37° C.
Source text: as §4, §5

[5] = test system: K. pneumoniae producing the Class D carbapenemase OXA-48; test: as above; assay type: cell-based; settings: Fixed Mero 4 μg/mL; CAMHB, 16-20 hours at 37° C.
Source text: as §4, §5

[6] = test system: K. pneumoniae expressing the class A carbapenemase KPC-2 and the class B carbapenemase VIM-4; test: as above; assay type: cell-based; settings: for MIC (μg/mL) of exemplary compounds in presence of fixed β-lactams, K.P. A-1797 KPC-2 VIM-4: Fixed Mero 4 μg/mL, CAMHB, 16-20 hours at 37° C.
Source text: as §4, §5, §6

[7] = test system: P.aeruginosa expressing the Class B carbapenemase VIM-2; test: as above; assay type: cell-based; settings: for MIC (μg/mL) of exemplary compounds in presence of fixed β-lactams, P. aerug. 2775 VIM-2: Fixed Mero 4 μg/mL, CAMHB, 16-20 hours at 37° C.
Source text: as §4, §5, §6

T2 sequence (Q9F663 25-293 limits assumed): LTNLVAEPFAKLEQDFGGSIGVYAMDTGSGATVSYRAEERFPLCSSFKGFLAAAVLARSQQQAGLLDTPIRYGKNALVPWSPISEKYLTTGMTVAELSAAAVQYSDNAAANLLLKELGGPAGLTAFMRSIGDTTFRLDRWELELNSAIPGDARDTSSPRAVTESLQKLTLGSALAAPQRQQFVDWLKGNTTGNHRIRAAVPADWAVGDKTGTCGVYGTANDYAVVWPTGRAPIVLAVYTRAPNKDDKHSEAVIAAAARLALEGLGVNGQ
T4 sequence (P05364 21-381): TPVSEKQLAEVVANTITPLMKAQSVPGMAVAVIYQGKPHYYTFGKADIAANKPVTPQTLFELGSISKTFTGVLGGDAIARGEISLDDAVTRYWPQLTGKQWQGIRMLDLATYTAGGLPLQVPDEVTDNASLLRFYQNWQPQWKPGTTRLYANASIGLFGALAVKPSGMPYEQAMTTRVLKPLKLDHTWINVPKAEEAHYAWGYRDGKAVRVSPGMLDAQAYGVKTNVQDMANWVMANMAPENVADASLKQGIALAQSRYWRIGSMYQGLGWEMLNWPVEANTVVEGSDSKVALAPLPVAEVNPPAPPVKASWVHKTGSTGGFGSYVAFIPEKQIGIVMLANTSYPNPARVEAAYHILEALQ
T1 sequence (P0A3M1 22-286): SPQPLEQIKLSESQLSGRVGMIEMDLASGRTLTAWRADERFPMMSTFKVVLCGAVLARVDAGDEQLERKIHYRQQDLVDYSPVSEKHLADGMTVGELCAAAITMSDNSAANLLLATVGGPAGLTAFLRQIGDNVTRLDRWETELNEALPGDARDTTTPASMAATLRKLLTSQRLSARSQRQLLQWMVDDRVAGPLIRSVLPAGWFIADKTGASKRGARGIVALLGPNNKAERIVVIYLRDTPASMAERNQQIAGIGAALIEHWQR
T5 sequence (Q6XEC0 23-265 limits assumed): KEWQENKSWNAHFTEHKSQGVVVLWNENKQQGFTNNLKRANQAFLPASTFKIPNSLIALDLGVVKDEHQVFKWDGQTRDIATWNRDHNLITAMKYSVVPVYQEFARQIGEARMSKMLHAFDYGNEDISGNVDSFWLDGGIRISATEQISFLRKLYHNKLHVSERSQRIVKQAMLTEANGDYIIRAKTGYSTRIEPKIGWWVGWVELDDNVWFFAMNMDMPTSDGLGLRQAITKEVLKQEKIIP

SMILES | IC50 (SHV-5) [nM] | IC50 (KPC-2) [nM] | IC50 [1] [nM] | IC50 (p99 AmpC) [nM] | IC50 (OXA-48) [nM] | MIC (μg/mL) of exemplary compounds in presence of fixed β-lactams, E. cl. 144200 p99 AmpC [2] | MIC (μg/mL) of exemplary compounds in presence of fixed β-lactams, E. coli ESBL4 CTX-M-15 [3] | MIC (μg/mL) of exemplary compounds in presence of fixed β-lactams, K. P. 156319 KPC-3 [4] | MIC (μg/mL) of exemplary compounds in presence of fixed β-lactams, K. P. 11978 OXA-48 [5] | MIC (μg/mL) of exemplary compounds in presence of fixed β-lactams, K.P. A-1797 KPC-2 VIM-4 [6] | MIC (μg/mL) of exemplary compounds in presence of fixed β-lactams, P. aerug. 2775 VIM-2 [7] | MIC alone of partner antibiotic ([2]; antibiotic alone, E. cloacae expressing Class C P99) [µg/mL] | MIC alone of partner antibiotic ([3]; antibiotic alone, E. coli expressing Ambler Class A ESBL CTX-M-15) [µg/mL] | MIC alone of partner antibiotic ([6]; antibiotic alone, K. pneumoniae expressing KPC-2 and VIM-4) [µg/mL] | MIC alone of partner antibiotic ([7]; antibiotic alone, P. aeruginosa expressing VIM-2) [µg/mL]
CC(F)(F)CC(=O)N[C@H]1Cc2cccc(C(=O)O)c2OB1O [Example 3, (R)-3-(3,3-difluorobutanamido)-2-hydroxy-3,4-dihydro-2H-benzo [e][1,2]oxaborinine-8-carboxylic acid] | < 100 | 100 to 1000 | 1000 to 10000 | < 100 | 100 to 1000 | C (C represents the MIC in the presence of ≤4 μg/mL of a β-lactamase inhibitor) | C (C represents the MIC in the presence of ≤4 μg/mL of a β-lactamase inhibitor) | C (C represents the MIC in the presence of ≤4 μg/mL of a β-lactamase inhibitor) | C (C represents the MIC in the presence of ≤4 μg/mL of a β-lactamase inhibitor) | C (C represents the MIC in the presence of ≤4 μg/mL of a β-lactamase inhibitor) | C (C represents the MIC in the presence of ≤4 μg/mL of a β-lactamase inhibitor) | – | – | – | –
CCC(F)(F)C(=O)N[C@H]1Cc2cccc(C(=O)O)c2OB1O [Example 1, (R)-3-(2,2-difluorobutanamido)-2-hydroxy-3,4-dihydro-2H-benzo [e] [1,2] oxaborinine-8-carboxylic acid] | < 100 | 100 to 1000 | 1000 to 10000 | < 100 | 100 to 1000 | C (C represents the MIC in the presence of ≤4 μg/mL of a β-lactamase inhibitor) | C (C represents the MIC in the presence of ≤4 μg/mL of a β-lactamase inhibitor) | B (B represents the MIC in the presence of between 8 and 32 μg/mL of a β-lactamase inhibitor) | C (C represents the MIC in the presence of ≤4 μg/mL of a β-lactamase inhibitor) | B (B represents the MIC in the presence of between 8 and 32 μg/mL of a β-lactamase inhibitor) | C (C represents the MIC in the presence of ≤4 μg/mL of a β-lactamase inhibitor) | – | – | – | –
O=C(CCCC(F)(F)F)N[C@H]1Cc2cccc(C(=O)O)c2OB1O [Example 2, (R)-2-hydroxy-3-(5,5,5-trifluoropentanamido)-3,4-dihydro-2H-benzo[e][1,2]oxaborinine-8-carboxylic acid] | < 100 | < 100 | 1000 to 10000 | < 100 | 100 to 1000 | C (C represents the MIC in the presence of ≤4 μg/mL of a β-lactamase inhibitor) | C (C represents the MIC in the presence of ≤4 μg/mL of a β-lactamase inhibitor) | C (C represents the MIC in the presence of ≤4 μg/mL of a β-lactamase inhibitor) | C (C represents the MIC in the presence of ≤4 μg/mL of a β-lactamase inhibitor) | C (C represents the MIC in the presence of ≤4 μg/mL of a β-lactamase inhibitor) | B (B represents the MIC in the presence of between 8 and 32 μg/mL of a β-lactamase inhibitor) | – | – | – | –
CC(F)C(=O)N[C@H]1Cc2cccc(C(=O)O)c2OB1O (mixture of isomers) [Example 102, (3R)-3-(2-fluoropropanamido)-2-hydroxy-3,4-dihydro-2H -benzo[e][1,2]oxaborinine-8-carboxylic acid] | < 100 | < 100 | 1000 to 10000 | < 100 | 100 to 1000 | C (C represents the MIC in the presence of ≤4 μg/mL of a β-lactamase inhibitor) | C (C represents the MIC in the presence of ≤4 μg/mL of a β-lactamase inhibitor) | C (C represents the MIC in the presence of ≤4 μg/mL of a β-lactamase inhibitor) | C (C represents the MIC in the presence of ≤4 μg/mL of a β-lactamase inhibitor) | B (B represents the MIC in the presence of between 8 and 32 μg/mL of a β-lactamase inhibitor) | C (C represents the MIC in the presence of ≤4 μg/mL of a β-lactamase inhibitor) | – | – | – | –
CC(C)(O/N=C(\C(=O)N[C@@H]1C(=O)N2C(C(=O)[O-])=C(C[n+]3ccccc3)CS[C@H]12)c1csc(N)n1)C(=O)O [Ceftazidime, reference compound] | – | – | – | – | – | – | – | – | – | – | – | 128 | > 128 | – | –
C[C@@H](O)[C@H]1C(=O)N2C(C(=O)O)=C(S[C@@H]3CN[C@H](C(=O)N(C)C)C3)[C@H](C)[C@H]12 [Meropenem, reference compound] | – | – | – | – | – | – | – | – | – | – | – | – | – | 64 | 16
